This assay deals with T. gondii ME49Luc in IFN-y HeLa, luciferase, 72 h. Briefly: T. gondii growth inhibition with IFN-gamma, dose response, cell-based, ME49Luc, HeLa, luciferase, 72 h (AID 1259418).

“And” between values parts separate entries of the source, which are not always exact repeats. Equal values may be shown once. Records with an inconclusive call do not appear. The source made the active and inactive calls.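 Rule for the calls: active = fitted half-maximal concentration of signal decrease at or below twice the sample's top tested concentration; inconclusive = flat curve between -70 and -30 percent, or poor fit; inactive = flat within 30 percent, signal rise, or potency above limit.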

The AC50 is the concentration giving half of the maximal activity seen. On to `Cc1ccc(NC(=O)N2CCN(Cc3nc(-c4ccccc4C)oc3C)CC2)cc1F`, for which the AC50 is > 39 µM (inactive). Consider `Cc1ccc(S(=O)(=O)N2CCC3(CC2)NCCN=C3NCc2cc(F)cc(F)c2)cc1C`, for which the half-maximal activity concentration (AC50) was 30.1 µM. Under `COc1ccc(-c2nc(NCCN3CCN(C)CC3)c3ccccc3n2)cc1` stands 3.52 µM and 27.4 µM; under `O=C(c1ccc(F)cc1)N1CC(=O)N2[C@H](CO)[C@@H](c3ccc(C#CCC4CCCC4)cc3)[C@@H]2C1`, 17.6 µM and 4.58 µM. Under `CN(C)C(=O)c1ccc(-c2ccc3c(c2)[C@H]2[C@H](CCN2C(=O)C2CCCC2)[C@@H](CO)N3C)cc1` stands 18.8 µM; under `Cc1ccc(CNC2=NCCNC23CCN(S(=O)(=O)c2cc(C)cc(C)c2)CC3)cc1`, 23.4 µM.

On to `CCSc1ccc(-c2sc(-c3ccc(OC)cc3)nc2C)nn1`, for which the AC50 is > 39 µM (inactive). The result for `COc1cccc(N(Cc2nc(-c3cccc(C)c3)oc2C)S(=O)(=O)c2ccc(C)cc2)c1` reads 4.46 µM; that for `O=C(NC1CCCC1)N1CCCCN2[C@@H](CO)[C@H](c3ccc(-c4cccnc4)cc3)[C@@H]2C1`, 23.3 µM. The result for `Cc1ccc(CSC2=Nc3ccccc3C3=NC(CCC(=O)NCc4cccs4)C(=O)N23)c(C)c1` (configuration not stated) reads 21.4 µM; that for `Cn1cc(-c2cnc(Nc3ccccc3)nc2)cc1C(=O)Nc1cccc(O)c1`, 23.6 µM. `COc1ccc(CNC2=NCCNC23CCN(S(=O)(=O)c2cc(C)c(C)cc2C)CC3)cc1`: the AC50 was 12.6 µM. On to `O=C(Cc1cccnc1)N1CC(=O)N2[C@@H](CO)[C@H](c3ccc(C4=CCCCC4)cc3)[C@@H]2C1`, for which the AC50 was > 39 µM (inactive). The result for `Cc1cccc(-c2nc(CN(c3ccccc3)S(=O)(=O)c3ccccc3)c(C)o2)c1` reads 5.9 µM and 16.3 µM.

Regarding `CC1CCCCN1CCNc1nc(-c2ccc(Cl)cc2)nc2ccccc12` (configuration not stated), the AC50 was 10.9 µM and 12.7 µM. With `CCOc1ccc(-c2nc(CN(c3cccc(OC)c3)S(=O)(=O)c3ccccc3C)c(C)o2)cc1`, the AC50 is 34.5 µM. Turning to `COc1ccc(-c2nc(CN(c3ccccc3OC)S(=O)(=O)c3ccc(OC)cc3)c(C)o2)cc1`, the AC50 is 5.84 µM. On to `CCOc1ccc(-c2nc(CN(c3ccccc3)S(=O)(=O)c3cccs3)c(C)o2)cc1`, for which the AC50 was 15.2 µM. Turning to `CCCCNC(=O)CCC1N=C2c3ccccc3N=C(SCc3ccccc3Cl)N2C1=O` (configuration not stated), the AC50 is 24.1 µM. The result for `O=C(c1cnccn1)N1CC(=O)N2[C@H](CO)[C@@H](c3ccc(/C=C/c4ccccc4)cc3)[C@@H]2C1` reads 21.7 µM and 13.2 µM; that for `O=C(Nc1ccccc1)c1ncn2c1CN(CC1CC1)S(=O)(=O)c1ccccc1-2`, 32.6 µM. The result for `N#Cc1cccc(-c2ccc3c(c2)[C@@H]2[C@@H](CCN2C(=O)c2ccccc2F)[C@@H](CO)N3)c1` reads 23.3 µM; that for `CCOc1ccccc1N(Cc1nc(-c2ccccc2OC)oc1C)S(=O)(=O)c1cccs1`, 12.2 µM. The result for `COc1ccc(-c2nc(CSc3nc4c(c(=O)[nH]3)CN(Cc3ccc(F)cc3)CC4)c(C)o2)cc1` reads 23.2 µM; that for `O=C(Cc1cccnc1)N1CC(=O)N2[C@H](C1)[C@@H](c1ccc(/C=C/c3ccccc3)cc1)[C@@H]2CO`, 19.8 µM. Turning to `O=C(C[C@H]1CC[C@H]2[C@@H](COC[C@@H](O)CN2Cc2cc(F)ccc2F)O1)NCc1ccc(Oc2ccccc2)cc1`, the AC50 was 27.3 µM. For `Cc1cnn(C(C)C(=O)N2CCc3[nH]nc(-c4ccc(F)c(F)c4)c3C2)c1` (configuration not stated), the AC50 was > 20 µM (inactive).

As for `O=S(=O)(c1ccc2c(c1)CCCC2)N1CCC2(CC1)NCCN=C2NCc1ccccc1F`, the AC50 is 16.4 µM. Turning to `Cc1ccc(-c2nc(CN3CCN(C(=O)NC4CCCC4)CC3)c(C)o2)cc1`, the AC50 is 20.9 µM. With `CC(C)C#Cc1ccc([C@H]2[C@@H](CO)N3C(=O)CN(C(=O)NC4CCCC4)C[C@H]23)cc1`, the AC50 was > 39 µM (inactive). `COc1cccc(-c2ccc(C3[C@@H]4CN(Cc5ccccn5)C[C@H]3N4)cc2)c1` (some centres not stated): the AC50 was 15.6 µM.

As for `COc1ccc(-c2nc(NCCN(C)C3CCCCC3)c3ccccc3n2)cc1`, the AC50 was 3.36 µM. Take `C[C@@H]1CN([C@@H](C)CO)C(=O)Cc2cc(NS(=O)(=O)c3ccc(Cl)cc3)ccc2O[C@@H]1CN(C)C(=O)Nc1ccc(C(F)(F)F)cc1`: the AC50 was 27.9 µM and 13.5 µM. Under `O=C(C[C@H]1CC[C@H]2[C@@H](COC[C@H](O)CN2S(=O)(=O)c2ccccc2)O1)NCC1CCCCC1` stands 20.8 µM; under `Fc1ccccc1CSc1nc(NCc2ccc(Cl)cc2)c2ccccc2n1`, 17.4 µM. As for `O=C(CC1CC1)N1CC[C@@H]2[C@H]1c1cc(-c3ccc(F)cc3)ccc1N[C@@H]2CO`, the AC50 was 19.7 µM. As to `CCCNC(=O)N1CCN(Cc2nc(-c3ccc(C)cc3)oc2C)CC1`, the AC50 is 26.1 µM.

Values taken from PubChem BioAssay AID1259418 (Broad Institute, 2018).
